The subject of data set [1] is Rattus norvegicus. As to conditions: for LOEL / NOEL: Hershberger; for LEL: uterotrophic, Active.
In data set [2] the test system is Rattus norvegicus. The settings on record: oral.
Another data set concerns Mus musculus. The settings on record: oral, B6C3F1.
The subject of data set [3] is Rattus norvegicus.
The test system of another data set is Oryctolagus sp. The settings on record: acute; dermal; occlusive; New Zealand.
The test system of data set [4] is Rattus norvegicus. As to conditions: oral, M/F.
[5] abbreviates: duration: 10 days, oral, gavage, Sprague-Dawley, active + Antiandrogenic + anti-androgenic.
The mark [6] stands for this setting: duration: 10 days, oral, gavage, Sprague-Dawley, active + Negative + Antiandrogenic + anti-androgenic.
[7] abbreviates: developmental, reduced pup weanling weight.
The mark [8] stands for this setting: duration: 10 days, oral, gavage, Sprague-Dawley, active + Negative + Antiandrogenic + anti-androgenic + negative.
Where [9] appears, read: chronic, duration: 2 years, diet, reduced body weight (males), liver cell vacuolation, cholinesterase inhibition.
[10] abbreviates: duration: 10 days, injection, subcutaneous, Fischer 344, active + Antiandrogenic + anti-androgenic.
The mark [11] stands for this setting: short-term, duration: 28 days, gavage, M, Sprague-Dawley, Body Weight Changes: decrease + Food Consumption: decrease + Relative Organ Weight: Thyroid increase.

Molecules are shown by their SMILES. Values joined by “and” are separate entries in the source; they are usually repeats but may differ in a detail not shown here. Equal values may be shown once.

As to `CC(C)CCCCCCCOC(=O)c1ccccc1C(=O)OCCCCCCCC(C)C` [Diisodecyl phthalate], in the data set with Rattus norvegicus [1] (setting [5]), the LOEL was 500 mg/kg-day and the NOEL amounted to 100 mg/kg-day.

In the case of `Cc1cccc2ccccc12` [1-Methylnaphthalene], the NOEL in the data set on Rattus norvegicus [2] (subchronic, gavage, M, Sprague-Dawley, Absolute Organ Weight: Liver increase + Relative Organ Weight: Liver increase) is 50 mg/kg-day. This molecule also showed an LOAEL in the data set on Mus musculus (chronic, duration: 81 weeks, M/F, respiratory) of 71.6 mg/kg-day.

`CC(C)([CH2][Sn]([CH2]C(C)(C)c1ccccc1)([CH2]C(C)(C)c1ccccc1)[O][Sn]([CH2]C(C)(C)c1ccccc1)([CH2]C(C)(C)c1ccccc1)[CH2]C(C)(C)c1ccccc1)c1ccccc1` [Fenbutatin oxide]: the LOEL in the data set with Rattus norvegicus [1] (duration: 10 days, oral, gavage, wistar, active + Negative + Antiandrogenic + anti-androgenic + decrease in age of partial PPS at 10 / decrease in PPS wt and age at 75 with …) came to 10 mg/kg-day.

In turn, `ClC(Cl)=C(Cl)C(Cl)=C(Cl)Cl` [Hexachloro-1,3-butadiene] came in with an LOAEL in the data set on Rattus norvegicus [3] (short-term, duration: 14 days, oral, diet, M/F, Wistar, renal) of 5.9 mg/kg-day. Also, the no observed adverse effect level (NOAEL) with Mus musculus (subchronic, duration: 13 weeks, diet, F, renal) turned out to be 0.2 mg/kg-day.

The molecule `C[C@H]1CCC[C@H](O)CCCCCc2cc(O)cc(O)c2C(=O)O1` [Zearalanol] returned an LEL in the data set on Rattus norvegicus [1] (duration: 3 days, oral) of 0.03 mg/day.

In the data set on Rattus norvegicus [1] (duration: 7 days, oral), `O=c1cc(-c2ccc(O)cc2)oc2cc(O)cc(O)c12` [Apigenin] showed an LEL of 5 mg/kg-day.

Regarding `Nc1ccc(Cc2ccc(N)cc2)cc1` [4,4'-Diaminobiphenyl methane], the NOAEL with Rattus norvegicus [2] (subchronic, duration: 90 days, drinking water, M/F, Tif / RAlf, Deaths + Body Weight Changes: Weight gain + Food Consumption: decrease + Water Consumption: decrease + Hematology: RBC decrease, HGB …) was below 12.2 mg/kg-day; in the data set on Rattus norvegicus [3] (subchronic, duration: 12 weeks, oral, gavage, M/F, Wistar, hepatic), 8.3 mg/kg-day. In the data set on Rattus norvegicus [3] (acute, duration: 1 days, oral, gavage, M, Sprague-Dawley, hepatic), the LOAEL amounted to 25 mg/kg-day.

With `CCCCCCCC=O` [Octanal], in the data set with Oryctolagus sp., the LD50 was determined as 5210 mg/kg.

For `CCCCN(CCCC)c1cccc(O)c1` [3-(Dibutylamino)phenol], the NOEL with Rattus norvegicus [1] (duration: 10 days, oral, gavage, Wistar, inactive + Negative + Negative + anti-androgenic + negative) was 300 mg/kg-day.

For `CCCCNC(=O)n1c(NC(=O)OC)nc2ccccc21` [Benomyl], in the data set on Rattus norvegicus [1] (setting [6]), the LOEL was 1000 mg/kg-day and the NOEL turned out to be 300 mg/kg-day. In the data set on Rattus norvegicus [4] (setting [7]), this molecule had an LEL of 25 mg/kg-day and an NOEL of 5 mg/kg-day.

As for `COP(=S)(OC)SCN1C(=O)c2ccccc2C1=O` [Phosmet], in the data set with Rattus norvegicus [1] (setting [8]), the LOEL was determined as 25 mg/kg-day; the NOEL is 20 mg/kg-day and 15 mg/kg-day. In the data set on Rattus norvegicus [4] (setting [9]), this molecule gave an LEL of 20 mg/kg-day and an NOEL of 2 mg/kg-day.

Take `CCCCCCCCCC(=O)O[C@H]1CC[C@H]2[C@@H]3CCC4=CC(=O)CC[C@@H]4[C@H]3CC[C@]12C` [Nandrolone decanoate]: the LOEL in the data set with Rattus norvegicus [1] (duration: 10 days, injection, intramuscular, Wistar, active + Androgenic + androgenic) was found to be 1.5 mg/kg-day.

Regarding `CCC[CH2][Sn]([Cl])([Cl])[CH2]CCC` [Dibutyltin dichloride], in the data set on Rattus norvegicus [3] (short-term, duration: 6 weeks, oral, diet, M/F, Wistar, immunological), the LOAEL is 5 mg/kg-day.

In turn, `ClCCOCCCl` [Bis(chloroethyl) ether] showed an NOEL in the data set with Rattus norvegicus [2] (subchronic, gavage, Sprague-Dawley) of 15 mg/kg-day. In addition, in the data set with Rattus norvegicus [3] (chronic, duration: 130 days, inhalation, M/F, body weight), the lowest-observed-adverse-effect level (LOAEL) was determined as 404 mg/m3.

Regarding `C#C[C@]1(OC(=O)CC)C[C@@H]2CC[C@@H]3[C@H](CC[C@@]4(C)[C@H]3CC[C@]4(C#C)OC(=O)CC)[C@H]2C1` [Dinordrin II], in the data set on Rattus norvegicus [1] (duration: 3 days, oral), the LEL came out at 0.01 mg/day.

As for `O=C(c1ccc(O)cc1)c1ccc(O)cc1O` [2,4,4'-Trihydroxybenzophenone], in the data set on Rattus norvegicus [1] (setting [10]), the LOEL amounted to 300 mg/kg-day and the NOEL turned out to be 100 mg/kg-day.

Turning to `O=[N+]([O-])c1ccc(O)cc1` [4-Nitrophenol], the LEL in the data set with Rattus norvegicus [1] (duration: 7 days, injection, subcutaneous) was found to be 10 mg/kg-day.

Consider `COP(=S)(OC)Oc1ccc([N+](=O)[O-])c(C)c1` [Fenitrothion], for which the LOEL in the data set on Rattus norvegicus [1] (duration: 7 days, oral, gavage, Sprague-Dawley, active + Negative + Antiandrogenic + anti-androgenic) is 15 mg/kg-day.

For `O=C(c1ccccc1)c1ccccc1` [Benzophenone], the LEL with Rattus norvegicus [1] (duration: 3 days, injection, intraperitoneal) turned out to be 300 mg/kg-day; in the data set on Rattus norvegicus [1] (duration: 3 days, injection, subcutaneous), 500 mg/kg-day; with Rattus norvegicus [1] (duration: 3 days, oral) it was 400 mg/kg-day.

For `O=C1OC(c2ccc(O)cc2)(c2ccc(O)cc2)c2ccccc21` [Phenolphthalein], the NOAEL in the data set with Rattus norvegicus [2] (setting [11]) is below 200 mg/kg-day. Moreover, the NOEL in the data set with Rattus norvegicus [2] (setting [11]) is below 200 mg/kg-day; in the data set with Rattus norvegicus [2] (subchronic, duration: 13 weeks, diet, F, Fischer 344, Body Weight Changes: decrease + Absolute Organ Weight: Liver + Relative Organ Weight: Right kidney increase, Liver increase), 800 mg/kg-day; in the data set with Rattus norvegicus [2] (subchronic, duration: 13 weeks, diet, M/F, Fischer 344, Body Weight Changes: decrease + Absolute Organ Weight: Liver + Relative Organ Weight: Right kidney increase, Liver increase) it was 576 mg/kg-day. The molecule also yielded an LEL with Rattus norvegicus [1] (duration: 2 days, injection, subcutaneous) of 1 mg/day.

What is called LOAEL is the lowest dose or exposure tested at which an adverse effect was seen. For orientation: NOAEL means the highest dose or exposure tested at which no adverse effect was seen. As usually defined, the LD50 is the dose expected to kill half of the subjects tested. Lower therefore signals greater toxicity.

The values are drawn from EPA's ToxValDB 9.5.
